This is an account of results in patent US11839623B2, “Antiviral prodrugs and formulations thereof” (BOARD OF REGENTS OF THE UNIVERSITY OF NEBRASKA, priority 2018, dated 2023).

pEC50, pIC50: −log10 of the molar value. Values joined by “and” are separate entries in the source; they are usually repeats but may differ in a detail not shown here. Equal entries are not always repeated.

Series [1] deals with HIV-1ADA. The series can be described thus: IC50 determination of ABC, MABC, PABC in MDM challenged with HIV-1ADA (RT activity). Type of series: cell-based. The note with it: HIV-1ADA MOI 0.1, RT activity day 10, read-out: IC50 on reverse transcriptase. The procedure:
(§1) Antiretroviral activities. Antiretroviral efficacy was determined by measurements of HIV reverse transcriptase (RT) activity. For IC50 determination, MDM were exposed to various concentrations (0.01-1000 nM) of ABC, MABC or PABC for 1 hour followed by challenge with HIV-1ADA at a multiplicity of infection (MOI) of 0.1 infectious particles per cell for 4 hours. Following viral challenge, cells were washed and incubated with the same concentration of drug used before infection for an additional 10 days in culture. Culture fluids were collected on day 10 for the measurement of RT activity. To assess antiretroviral efficacy, MDM were treated with 100 μM ABC, PABC or NPABC as described above for 8 hours. After treatment, cells were washed with PBS and cultured with fresh media, with half-media exchanges every other day. At 0, 4, 12 hours, and 1, 5, 10, 15 or 20 days after treatment, cells were challenged with HIV-1ADA at an MOI of 0.1 infectious particles per cell for 16 hours. After viral infection, the cells were cultured an additional 10 days with half-media exchanges every other day. Culture fluids were collected for measurement of RT activity. Cells were fixed with 4% PFA and expression of HIV-1 p24 antigen was determined by immunocytochemistry.

The next series can be described thus: Stability assay in serum. The format is in vitro ADME, human. Particulars: 37° C., 24 hours, 15 μg/ml. The procedure:
Stability Assay in Serum: The experiment was carried out by adding each ProTide into 100 μl human serum to reach a final concentration of 15 μg/ml in glass vial, and duplicate samples were used for each ProTide. After incubating the samples at 37° C. with shaking for 24 hours, 900 μl of MeOH was added to stop the reaction. Samples were vortexed for 3 minutes, then centrifuged down at 16,000 g for 10 minutes. The supernatants were transfer to new 2 ml tubes and evaporated to dryness under vacuum. The samples were reconstituted using 50 μl of MeOH, vortexed for 3 minutes and centrifuged down at 16,000 g for 10 minutes. The supernatants were analyzed by HPLC for drug concentrations. For control sample (0 minute), MeOH were added first to stop the enzyme before adding the ProTides.

In series [2] the test system is HIV-1ADA. The series can be described thus: Antiretroviral activity of ABC and its ProTides against HIV-1ADA in MDM (RT activity). The note with it: human MDM, RT activity day 10 post infection. Type of series: cell-based. The procedure:
(§2) Cell model for in vitro studies: Human peripheral blood monocytes were obtained and cultured as described (Gendelman, et al., J. Exp. Med. (1988) 167:1428-1441). Briefly, human peripheral blood monocytes were obtained by leukapheresis from HIV-1/2 and hepatitis B seronegative donors, followed by purification via countercurrent centrifugal elutriation. Elutriated monocytes were cultured as adherent cells in Dulbecco's […] medium (DMEM) supplemented with 10% heat-inactivated pooled human serum, 10 μg/mL ciprofloxacin, 50 μg/mL gentamicin, and 1000 U/mL recombinant macrophage colony stimulating factor. Cells were maintained at 37° C. in a 5% CO2 incubator. Seven days later, differentiated macrophages (MDM) were used for the experiments.
Antiretroviral activity of ABC and its ProTides: The antiviral activities of native ABC and ABC ProTides against HIV-1ADA were determined in MDM as described (Singh, et al., Nanomedicine (2016) 11:1913-1927). MDM were incubated with various concentrations of ABC or ABC ProTides for 60 minutes followed by infection with HIV-1ADA at a multiplicity of infection (MOI) of 0.01 for 4 hours. […] At day 10 post infection, supernatants were collected and analyzed for HIV-1 reverse transcriptase (RT) activity (Kalter, et al., J. Clin. Microbiol. (1992) 30:993-995).

For series [3], the system named is monocyte-derived macrophages (MDM). The series can be described thus: Cell viability of ABC and its ProTides in MDM (CCK-8). The format is cell-based, human. The procedure:
Cell viability of ABC and its ProTides: A CCK-8 Kit was purchased from Dojindo (Rockville, Md.) and used to test cell viability after treatment with ABC and its ProTides. Briefly, MDM plated in a 96-well plate were treated with 100 μl of 0-400 μM ABC and its ProTides for 24 hours. Drug containing medium was removed and replaced with fresh medium. Ten μl of CCK-8 solution was added to each well followed by incubation of the plate for 2 hours at 37° C. The absorbance (at 450 nm) of each well was measured using a microplate reader. The cell viability was calculated according to manufacturer's instructions.

Series [4] shares this test system. The series can be described thus: Intracellular level of CBV-TP in MDM treated with 10 μM ABC or ABC ProTides. Particulars: 10 μM drug; for maximum CBV-TP levels: 3-48 hours; for percentage decrease of intracellular CBV-TP from Cmax at 48 hours: (Cmax−Cmin)/(Cmax)*100. Type of series: cell-based. The procedure:
as §2
Intracellular level of CBV-TP of ABC and its ProTides: Intracellular levels of CBV-TP were measured as described (Balzarini, et al., FEBS Lett. (2004) 573:38-44). MDM were treated with 10 μM ABC and ABC ProTides. At 3, 6, 12, 24 and 48 hours after treatment, MDM were washed with PBS to remove excess free drug. The cells were then collected in 70% methanol. CBV-TP from MDM was extracted and quantitated by LC-MS/MS as described (Gautam, et al., J. Pharm. Biomed. Anal. (2018) 153:248-259). Sep-Pak QMA cartridges (360 mg, 37-55 μm; Waters) were used to separate CBV-TP from their mono- and di-phosphates counterparts. The QMA cartridges were conditioned with 10 ml of 500 mM KCl followed by 10 ml of 5 mM KCl. Samples were loaded onto the cartridges and washed with 15 ml of 75 mM KCl. The triphosphate fraction was eluted with 3 ml of 500 mM KCl and collected for de-phosphorylation. The pH of the TP fraction was lowered to 4.25 by adding 15 μl ammonium acetate buffer (pH 4.10 mM) per ml eluate, and dephosphorylated by adding one unit of type XA sweet potato acid phosphatase per ml eluate and incubating at 37° C. for 30 minutes. The ^15N2^13C-3TC and d4-ABC internal standard was added at this point. Samples were then loaded onto Waters OASIS® HLB cartridges (60 mg, 30 μm; Waters) pre-conditioned with 3 ml MeOH and 3 ml H2O, and washed with 3.5 ml H2O to remove salts. The nucleosides of interest were then eluted with 1.5 ml of MeOH and evaporated under vacuum. Once dry, the residue was reconstituted with a 100 μl of 25% MeOH and stored in the −20° C. freezer until the time of LC-MS/MS analyses. The LC-MS/MS system comprised of a Waters ACQUITY ultra-performance liquid chromatography (UPLC) system (Waters, Milford, Mass.) coupled to a triple quadrupole mass spectrometer with electrospray ionization (ESI) source (Waters Xevo TQ-XS). For the indirect quantification of TPs, chromatographic separation was performed with an ACQUITY UPLC using CSH analytical column (2.1×100 mm, 1.7 μm; Waters) equipped with a guard column (Waters, Milford, Mass.). Mobile phase A consisted of ammonium bicarbonate (pH 7, 7.5 mM) and mobile phase B was methanol. The flow rate was 0.25 ml/minute. […] Mobile phase B was then reset to 12% over 0.25 minutes and the column was equilibrated for 2.75 minutes before the next injection. The total run time was 13 minutes. The mass spectrometer was operated in the positive ion mode using multiple reaction monitoring (MRM). The following transitions were monitored: m/z 230→112 for 3TC, m/z 248→152 for CBV, m/z 287→191 for ABC, m/z 233→115 for the internal standard (IS) ^15N2^13C-3TC, and m/z 291→195 for IS d4-ABC. 3TC, CBV, ABC, ^15N2^13C-3TC, and d4-ABC were detected at a cone voltage of 22, 2, 4, 12, and 2 V, respectively, and a collision energy of 12, 12, 20, 10, and 20 V, respectively.

Series [5] can be described thus: Characterization of NPABC nanoparticles (DLS, drug loading). Type of series: physicochemical. The note with it: PABC nanocrystals. The text has this:
The LASER ProTide nanocrystals (NPABC, NP3TC, NPFTC and NPTFV) may be coated with either cell or tissue receptor targeted or non-targeted poloxamer 407 (P407), poloxamer 338 (P338), 1,2-distearoyl-sn-glycero-3-phosphocholine (DSPC), 1,2-distearoyl-sn-glycero-3-phosphoethanolamine-N-carboxy(polyethylene glycol)-2000 (DSPE-PEG) or polyvinyl alcohol (PVA). The nanocrystals may also be stabilized with polysorbate and polyethylene glycol surfactants. Here, a drug to surfactant ratio of 2:1 by weight was used to manufacture NPABC nanoparticles. Briefly, 1-5% (w/v) PABC and 0.5-2.5% (w/v) P407 were mixed in sterile phosphate buffer. The premixed suspensions were nanoformulated by wet milling or high-pressure homogenization at 20,000-psi until desirable size and polydispersity index were achieved. The LASER ProTide nanoformulations were characterized for particle size, polydispersity index (PDI) and zeta potential by dynamic light scattering (DLS). […] For P407-PABC nanoparticles (NPABC), the average size (diameter) was 350 nm, the PDI was 0.28, and the charge was −21.4 mV.
Nanoparticle morphology was determined by scanning electron microscopy (SEM). UPLC MS/MS was used for drug quantitation. The conversion of ABC to PABC facilitated production of stable nanocrystals with a drug loading capacity of more than 70%.

Series [6] relates to HIV-1ADA. The series can be described thus: Antiretroviral efficacy of ABC, PABC, NPABC in MDM challenged with HIV-1ADA (RT activity, p24). Type of series: cell-based. Particulars: 100 μM 8 hours. The procedure:
as §1, with “Culture fluids were collected for measurement of RT activity.” left out
Significant improvements in MDM antiretroviral efficacy were also observed for PABC and NPABC. […] HIV-1 p24 was not detected in the PABC or NPABC-treated groups at the measured timepoints (FIG. 6). […]

For `CCCCCCCCCCCCCC(=O)OCC1C=CC(n2cnc3c(NC4CC4)nc(N)nc32)C1` (stereo not shown) [MABC], in the series with HIV-1ADA [1], the pIC50 is 6.64.

Turning to `CCCCCCCCCCCCCCCCCCCCCCOC(=O)C(Cc1ccccc1)NP(=O)(OCC1C=CC(n2cnc3c(NC4CC4)nc(N)nc32)C1)Oc1ccccc1` (mixture of isomers) [M3ABC], the “prodrug hydrolyzed/degraded in human serum” value in the series “Stability assay in serum” is “Nineteen percent”. In the series with HIV-1ADA [2], this compound showed a pEC50 of 8.15. For the same compound, the “cell viability difference versus ABC” value in series [3] (all tested drug concentrations (0-400 μM)) is “No significant differences”. In addition, in series [4], the “maximum CBV-TP levels” value was determined as 541 fmol per million cells; the “CBV-TP levels at 48 hours” value was 230 fmol per million cells; the “percentage decrease of intracellular CBV-TP from Cmax at 48 hours” value is 57% and 57.3%.

As for `CCCCCCCCCCCCCCCCCCCCCCOC(=O)C(Cc1ccccc1)NP(=O)(OCC1C=CC(n2cnc3c(NC4CC4)nc(N)nc32)C1)Oc1ccccc1` (mixture of isomers) [PABC], the drug loading capacity result in series [5] is “more than 70%”. The pIC50 with HIV-1ADA [1] is 7.69. In addition, the “antiretroviral activity compared to ABC” value in the series with HIV-1ADA [6] is reported as “enhanced antiretroviral activity”. In the series with HIV-1ADA [6] (challenge after 1-20 days), the “HIV-1 p24” value is “not detected”.

With `COC(=O)C(C)NP(=O)(OCC1C=CC(n2cnc3c(NC4CC4)nc(N)nc32)C1)Oc1ccccc1` (mixture of isomers) [M1ABC], the pEC50 with HIV-1ADA [2] is 8.74. In series [3] (400 μM), the “mitochondrial activity compared to ABC” value is “differences in mitochondrial activity were seen”. Moreover, in series [4], the “maximum CBV-TP levels” value worked out at 35650 fmol per million cells; the “CBV-TP levels at 48 hours” value is recorded as 789 fmol per million cells; the “percentage decrease of intracellular CBV-TP from Cmax at 48 hours” value is 97% and 97.8%.
